Results published in ChEMBL document CHEMBL1201862, “PubChem BioAssay data set” (2004).
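Protocol summary: plate cells (96-well), add compound at 5 concentrations, incubate 48 h, interpolate endpoints linearly. GI50 is the concentration that inhibits growth by half.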 Activity calls are given as the source filed them. No stated cut-off is given here; in the data, active = GI50 up to about 1.1 µM and inactive = higher.

Key:
Assay in all cases: NCI-60 cell line screen, 48 h
NCI-H460 = test system: NCI-H460
OVCAR-5 = test system: OVCAR-5
HCT-15 = test system: HCT-15
SF-295 = test system: SF-295
UACC-62 = test system: UACC-62
SW-620 = test system: SW-620
OVCAR-8 = test system: OVCAR-8
U-251 = test system: U-251
NCI-H226 = test system: NCI-H226
SF-268 = test system: SF-268
COLO 205 = test system: COLO 205
A498 = test system: A498
K562 = test system: K562
OVCAR-3 = test system: OVCAR-3
SK-OV-3 = test system: SK-OV-3
SK-MEL-28 = test system: SK-MEL-28
HL-60 = test system: HL-60
HCT-116 = test system: HCT-116
EKVX = test system: EKVX
M14 = test system: M14

Row | Compound | GI50 (NCI-H460) | GI50 (OVCAR-5) | GI50 (HCT-15) [µM] | GI50 (SF-295) | GI50 (UACC-62) | GI50 (SW-620) | GI50 (OVCAR-8) | GI50 (U-251) | GI50 (NCI-H226) | GI50 (SF-268) | GI50 (COLO 205) | GI50 (A498) | GI50 (K562) | GI50 (OVCAR-3) | GI50 (SK-OV-3) | GI50 (SK-MEL-28) | GI50 (HL-60) | GI50 (HCT-116) | GI50 (EKVX) | GI50 (M14)
1 | Cc1cccc(C)c1NC(=O)Nc1ccc(S(N)(=O)=O)cc1 | > 100 µM (inactive) | > 100 µM (inactive) | > 100 | > 100 µM (inactive) | > 100 µM (inactive) | > 100 µM (inactive) | > 100 µM (inactive) | > 100 µM (inactive) | > 100 µM (inactive) | > 100 µM (inactive) | > 100 µM (inactive) | > 100 µM (inactive) | > 100 µM (inactive) | > 100 µM (inactive) | > 100 µM (inactive) | > 100 µM (inactive) | > 100 µM (inactive) | > 100 µM (inactive) | > 100 µM (inactive) | > 100 µM (inactive)
2 | O=C1C=C/C(=C/[C@H]2SSC=C[C@]23C=CC(=O)C3)C1 | 29.3 µM (inactive) | 13 µM (inactive) | 14.9 | 30.7 µM (inactive) | 18 µM (inactive) | 11.9 µM (inactive) | 25.9 µM (inactive) | 28.5 µM (inactive) | 6.41 µM (inactive) | 26.5 µM (inactive) | 13 µM (inactive) | 17.6 µM (inactive) | 5.3 µM (inactive) | 26.7 µM (inactive) | 49.7 µM (inactive) | 18.9 µM (inactive) | 2.38 µM (inactive) | 7.36 µM (inactive) | 17.5 µM (inactive) | 17.2 µM (inactive)
3 | COc1ccc(/C=C2\C[C@H]3[C@@H]4CCC5=C/C(=N/O)CC[C@]5(C)[C@H]4CC[C@]3(C)\C2=N\O)cc1OC | 3.61 µM (inactive) | 41 µM (inactive) | 14.7 | 7 µM (inactive) | 22.2 µM (inactive) | 34.2 µM (inactive) | 11 µM (inactive) |  | 2.51 µM (inactive) | 51.6 µM (inactive) |  | 33.1 µM (inactive) | 6.92 µM (inactive) | 9.1 µM (inactive) | 39.3 µM (inactive) | 88.5 µM (inactive) | 4.72 µM (inactive) | 6.56 µM (inactive) | 3.36 µM (inactive) | 40.2 µM (inactive)
4 | COc1cccc(N2C(=O)CSC2c2cccc(Oc3ccccc3)c2)c1 (configuration not stated) | 3.33 µM (inactive) | 18.5 µM (inactive) | 4.21 | 6.32 µM (inactive) | 3.21 µM (inactive) | 4.8 µM (inactive) | 8.69 µM (inactive) | 5.22 µM (inactive) | 8.32 µM (inactive) | 6.79 µM (inactive) | 3.37 µM (inactive) | 3.94 µM (inactive) | 3.42 µM (inactive) | 4.79 µM (inactive) | 16.1 µM (inactive) | 19 µM (inactive) | 4.39 µM (inactive) | 3.61 µM (inactive) | 13.8 µM (inactive) | 4.79 µM (inactive)
5 | C=CCc1cccc2cc(C(=O)Nc3ccc(C)cc3)c(=N)oc12 | > 100 µM (inactive) | > 100 µM (inactive) | > 100 |  | > 100 µM (inactive) | > 100 µM (inactive) | > 100 µM (inactive) | > 100 µM (inactive) | 33.9 µM (inactive) | > 100 µM (inactive) | > 100 µM (inactive) | > 100 µM (inactive) | > 100 µM (inactive) | > 100 µM (inactive) | > 100 µM (inactive) | > 100 µM (inactive) | > 100 µM (inactive) | > 100 µM (inactive) | > 100 µM (inactive) | > 100 µM (inactive)
6 | C[n+]1[se]c2ccccc2c1Cl | 35.3 µM (inactive) | > 52.1 µM (inactive) | 24.7 | 21.7 µM (inactive) | 17.7 µM (inactive) | 20 µM (inactive) | 45 µM (inactive) | 30.9 µM (inactive) | 25.6 µM (inactive) | 20.9 µM (inactive) | > 43.9 µM (inactive) | > 59.4 µM (inactive) | 36.4 µM (inactive) | 27 µM (inactive) | > 89.3 µM (inactive) | 23.4 µM (inactive) | 7.89 µM (inactive) | 16.9 µM (inactive) | 24.1 µM (inactive) | 13.7 µM (inactive)
7 | C=CC1(c2ccccc2Cl)N/C(=C/OCC)CO1 (configuration not stated) | > 100 µM (inactive) | > 100 µM (inactive) | > 100 | > 100 µM (inactive) | > 100 µM (inactive) | 13.2 µM (inactive) | > 100 µM (inactive) | > 100 µM (inactive) | > 100 µM (inactive) | > 100 µM (inactive) | 88.3 µM (inactive) | > 100 µM (inactive) | > 100 µM (inactive) | > 100 µM (inactive) | > 100 µM (inactive) | > 100 µM (inactive) | 47.9 µM (inactive) | 90.2 µM (inactive) | > 100 µM (inactive) | > 100 µM (inactive)
8 | O=C(O)C(F)(F)C(F)(F)C(F)(F)C(F)(F)C(F)(F)C(F)(F)C(F)(F)C(F)(F)F | 81.5 µM (inactive) | 33.3 µM (inactive) | 27.4 | 31 µM (inactive) | > 100 µM (inactive) | 52.5 µM (inactive) | 43.9 µM (inactive) | 26.4 µM (inactive) | 34.2 µM (inactive) | 54.7 µM (inactive) | 48.5 µM (inactive) | 38.3 µM (inactive) | 27.1 µM (inactive) | 43.8 µM (inactive) | 29.6 µM (inactive) | > 100 µM (inactive) | 25.2 µM (inactive) | 41 µM (inactive) | 48 µM (inactive) | 28.1 µM (inactive)
